The test deals with OTU domain-containing protein 3 (Homo sapiens) (UniProt Q5T2D3). The experiment in a line: Validation of screening hits, potency titration, in vitro enzymatic, OTU domain-containing protein 3 DUB inhibitors (AID 1645868). The following applies: purified OTUD3, ubiquitin-rhodamine cleavage fluorescence, 2 h.

SMILES strings stand for the structures. Active and inactive are the calls of the source.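 The calls were made as follows: active = maximal percent inhibition of the deubiquitinase OTUD3 of at least 30% across the tested doses; inactive = the rest.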

Sequence of OTU domain-containing protein 3 (Homo sapiens) (Q5T2D3 whole entry, looked up, the tested form may be a part): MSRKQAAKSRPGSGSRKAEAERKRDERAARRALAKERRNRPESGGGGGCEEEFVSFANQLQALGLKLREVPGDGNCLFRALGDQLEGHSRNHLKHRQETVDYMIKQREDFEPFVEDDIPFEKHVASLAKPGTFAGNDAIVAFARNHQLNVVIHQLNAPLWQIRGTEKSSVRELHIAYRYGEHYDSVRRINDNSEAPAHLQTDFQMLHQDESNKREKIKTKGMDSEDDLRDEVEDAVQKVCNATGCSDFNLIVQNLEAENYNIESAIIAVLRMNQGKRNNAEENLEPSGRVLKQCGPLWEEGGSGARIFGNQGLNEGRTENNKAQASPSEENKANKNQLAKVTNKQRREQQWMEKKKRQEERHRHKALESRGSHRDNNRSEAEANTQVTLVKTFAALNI

Usually IC50 stands for the concentration that gives 50% inhibition. For the compound `COc1c(C)c(C(O)C(C)O)c2[nH]c3ccc(CC=C(C)C)cc3c2c1O` (stereo not drawn), the IC50 is 25.6 µM.
As for `Nc1ncnc2c1ncn2[C@@H]1O[C@H](CO)C[C@@H]1O`, the IC50 is 33.4 µM.
Turning to `Cc1cc(C(=O)N2CCOCC2)c(C)n1-c1ccc(O)cc1`, the IC50 is > 50 µM (inactive).
Regarding `Cc1ccc(/C=C/C(=O)Nc2ccc3c(c2)OCCO3)cc1`, the IC50 was > 50 µM (inactive).
For `Cc1ccc(C(=O)Nc2cc3c4c(c2)CC(=O)N4CCC3)cc1C`, the IC50 was > 50 µM (inactive).
Turning to `CCN(CC)C(=O)CN1CCCC(c2ncncc2-c2cc(C)no2)C1` (stereo not drawn), the IC50 is > 50 µM (inactive).
As for `Cn1nccc1C(=O)N1CCCCC1c1ncc(Cc2ccc(Cl)cc2)o1` (stereo not drawn), the IC50 is > 50 µM (inactive).
On to `Cc1ccn(-c2ccc(NC(=O)c3ccccc3Sc3ccccc3C#N)cc2)n1`, for which the IC50 is 44.5 µM.
Consider `Cc1cccc(N2CCN(C(=O)c3nnn(-c4ccc(F)cc4)n3)CC2)c1`, for which the IC50 was > 50 µM (inactive).
To `O=C(c1cscn1)N1CCC2(CC1)CC1(CO2)Nc2ccccc2-n2cccc21` (stereo not drawn) belongs > 50 µM (inactive); to `CC(OC(=O)c1ccc2c(c1)OCCO2)C(=O)NCC1CCCCC1` (stereo not drawn), 34.2 µM; to `CCn1c(SCc2nc(N)c3ccccc3n2)nc2ccccc21`, > 50 µM (inactive).
In the case of `Cc1ccc(S(=O)(=O)NCC(=O)OC(C(=O)Nc2cc(C)ccc2C)c2ccccc2)cc1` (stereo not drawn), the IC50 is > 50 µM (inactive).
Regarding `O=C(Nc1cccc2ccccc12)C1CCCN(S(=O)(=O)Cc2ccccc2)C1` (stereo not drawn), the IC50 was 40.5 µM.
Turning to `Cc1ccc(C(=O)Nc2ccc3nccnc3c2)cc1`, the IC50 is > 50 µM (inactive).
Regarding `Oc1ccc(-c2nc3cnccn3c2NCCc2ccccc2)c(O)c1`, the IC50 was > 50 µM (inactive).
For the compound `O=c1ccc(-c2noc(-c3ccc4cc[nH]c4c3)n2)c[nH]1`, the IC50 was > 50 µM (inactive).
Regarding `O=C(COC(=O)Cn1cnc2ccccc21)Nc1ccc2c(c1)OCCO2`, the IC50 was > 50 µM (inactive).
The result for `CCn1c(Cn2cccn2)nc2cc(NC(=O)c3ccc(F)cc3)ccc21` reads > 50 µM (inactive); that for `O=C(Nc1cc(F)c2nc(N3CCOCC3)ccc2c1)C1CC1`, > 50 µM (inactive); that for `Cc1ccc(NC(=O)c2cc(=O)n(C)c3c2c(=O)n(C)c(=O)n3C)c(C)c1`, > 50 µM (inactive).
With `Cc1oc(-c2ccc(C(=O)NCC3COCCO3)cc2)nc1CN1CCc2ccccc21` (stereo not drawn), the IC50 was > 50 µM (inactive).
Turning to `O=C(NCc1ccccc1Cl)c1ccc2cn[nH]c2c1`, the IC50 is > 50 µM (inactive).
In the case of `O=C(Nc1ccccc1)C1CCCN(C(=O)c2cc3ccccc3[nH]2)C1` (stereo not drawn), the IC50 was 43.2 µM.
Turning to `O=C(Cn1c(=O)n(Cc2ccco2)c(=O)c2ccc(C(=O)NC3CCCC3)cc21)NCc1ccco1`, the IC50 is > 50 µM (inactive).
As to `COc1ccc(NC(=O)CS(=O)(=O)c2[nH]c(-c3ccc(C)cc3)nc2-c2ccccc2)cc1Cl`, the IC50 was > 50 µM (inactive).
Regarding `O=C(Nc1ccc(F)cc1)Nc1ccccc1OCc1cc(=O)n2ccccc2n1`, the IC50 was 39.3 µM.
The result for `C[C@@]12c3ccc4c(c3C(=O)c3occ(c31)C(O)C[C@H]2O)CCC4=O` (stereo partly drawn) reads > 50 µM (inactive).
`Cc1ccc(-c2ccc(N3CCOCC3)nn2)cc1S(=O)(=O)N1CCOCC1`: the IC50 was > 50 µM (inactive).
Take `COc1ccc(NC(=O)CC(=O)c2ccc([N+](=O)[O-])cc2)cc1S(=O)(=O)Nc1ccc(Cl)cc1`: the IC50 was 35.5 µM.
Regarding `CCN1C(=O)c2cccnc2Sc2cc(NC(=O)c3ccc(Cl)s3)ccc21`, the IC50 was > 50 µM (inactive).
The result for `COc1ccc(CCNC(=O)c2noc3c2CCc2sccc2-3)cc1OC` reads > 50 µM (inactive); that for `O=C(Cn1c(=O)n(Cc2ccccc2)c(=O)c2ncccc21)NCc1ccccc1Cl`, > 50 µM (inactive); that for `CCOc1ccc(NC(=O)COc2cccc(-n3cnnn3)c2)cc1`, > 50 µM (inactive).
The result for `O=C1C[C@@H]2O[C@H](CNC(=O)[C@@H]3CN(CCN3C(=O)C3CCOCC3)C(=O)[C@@H]3C[C@@H](CN3Cc3ccc(F)c(F)c3)N1)[C@@H](O)[C@H]2O` reads > 50 µM (inactive); that for `COc1ccc(C2CC(=O)Nc3n[nH]c(-c4ccccc4)c32)cc1OC` (stereo not drawn), > 50 µM (inactive); that for `COc1c2n(c3ccccc13)[C@@]1(O)C(=O)N(C)C(=O)[C@@]1(O)c1c-2n(C)c2ccc(Cl)cc12`, > 50 µM (inactive).
For the compound `COc1cccc2c1NC(=O)C21CCN(C(=O)Nc2cccc3ccccc23)CC1`, the IC50 is > 50 µM (inactive).
The result for `O=C(Nc1ccc(-c2cn3ccsc3n2)cc1)c1ccc(Cl)c([N+](=O)[O-])c1` reads 5.01 µM; that for `COc1cccc(-c2cc(C(=O)N3CCN(c4ccc(N5CCOCC5)nn4)CC3)[nH]n2)c1`, > 50 µM (inactive); that for `CCCC1Cc2c(sc3nc(SCC)nc(N)c23)CO1` (stereo not drawn), 26.9 µM.
As for `O=C(Nc1ccc(-c2nnc3n2CCCCC3)cc1)c1ccc2c(c1)OCO2`, the IC50 was > 50 µM (inactive).
In the case of `COc1cccc2c1OCC(C(=O)NCc1ccc(F)cc1)=C2`, the IC50 was > 50 µM (inactive).
Take `O=C(Nc1cccc(-c2nc3ccccc3[nH]2)c1)c1cc2ccccc2oc1=O`: the IC50 is 22 µM.
To `CN(C)Cc1ccc(C(=O)Nc2ccc(-c3nccs3)cc2)cc1` belongs > 50 µM (inactive); to `CCOC(=O)C1CCN(C(=O)c2ccc3c(c2)NC(=O)C2CCCN32)CC1` (stereo not drawn), > 50 µM (inactive); to `O=S1(=O)NC(=NCCc2ccc(Cl)cc2Cl)c2ccccc21`, > 50 µM (inactive).
Turning to `Cc1cc(C(=O)N2CCN(C3CCN(Cc4ccc(Cl)o4)CC3)C(=O)C2)c(C)o1`, the IC50 is > 50 µM (inactive).
To `Cc1cc(O)cc2cc3c(c(O)c12)C(=O)CCC3O` (stereo not drawn) belongs > 50 µM (inactive).
Turning to `O=C(NCc1ccccc1)c1ccc(-c2ccc(N3CCCC3)nn2)cc1`, the IC50 was > 50 µM (inactive).
`COc1ccc(C(=O)Nc2ccccc2C(=O)NCc2ccccc2)cc1`: the IC50 was > 50 µM (inactive).
`COc1ccc(NC(=O)c2nnn(-c3cccc(C)c3)c2C)cc1`: the IC50 is > 50 µM (inactive).
Consider `Cc1cn[nH]c1C1COCCN1C(=O)c1ccc2ncccc2c1` (stereo not drawn), for which the IC50 is > 50 µM (inactive).
For `c1ccc(-n2nnc(-c3noc(-c4cccnc4)n3)c2-c2ccncc2)cc1`, the IC50 is 24 µM.
The result for `Cc1cc(C)c(NC(=O)Cn2c(=O)n(CCC(=O)NCc3ccc4c(c3)OCO4)c(=O)c3sccc32)c(C)c1` reads 12.6 µM.
As to `CCN(CCCNC(=O)c1ccc(Cn2c(=O)[nH]c3ccccc3c2=O)cc1)c1ccccc1`, the IC50 was 17.4 µM.
`Cc1c(Cl)cccc1NC(=O)Cn1ccc2ccccc2c1=O`: the IC50 is > 50 µM (inactive).
With `Cn1c(=O)sc2cc(NC(=O)c3ccc(Br)cc3)ccc21`, the IC50 was 15.2 µM.
`COc1ccccc1NC(=O)Cn1cc(C(=O)c2ccc(C)cc2)c(=O)c2cc(Cl)ccc21`: the 50% inhibitory concentration (IC50) is 23.9 µM.
With `COc1cccc(NC(=O)c2ccc(-c3csc(C)n3)cc2)c1`, the IC50 is > 50 µM (inactive).
With `Cc1ccc(NC2=NC(c3ccco3)n3c(nc(C)cc3=O)N2)c(C)c1` (stereo not drawn), the IC50 was > 50 µM (inactive).
Consider `COC(=O)c1ccc2c(=O)n(CCCCCC(=O)NCc3cccc(Cl)c3)c(=O)[nH]c2c1`, for which the IC50 is 3.22 µM.
With `c1cncc(-c2nc(Nc3ccc4c(c3)OCCO4)c3ccccc3n2)c1`, the IC50 was > 50 µM (inactive).
With `CC1(C)CC2CC(C)(CN2Cc2c(O)ccc3ccccc23)C1` (stereo not drawn), the IC50 is > 50 µM (inactive).
Consider `O=c1cc(CNc2ccc(Br)cc2)nc2nc(-c3ccccc3)[nH]n12`, for which the IC50 was > 50 µM (inactive).
To `COc1cccc(C(=O)NCc2[nH]nc3ccccc23)c1` belongs > 50 µM (inactive).
The result for `COc1cccc(-n2nnc(C(=O)Nc3ccc(C)c(C)c3)c2C)c1` reads > 50 µM (inactive).
With `N#Cc1cn(CC(=O)N2CCc3ccccc32)c2ccccc12`, the IC50 was > 50 µM (inactive).
On to `COc1ccc(C(=O)CCN2CCOCC2)cc1[N+](=O)[O-]`, for which the IC50 is > 50 µM (inactive).
Turning to `O=C(CSc1ccc(-c2cccc([N+](=O)[O-])c2)nn1)Nc1cccc(F)c1`, the IC50 was 25.2 µM.
Turning to `CC1CCN(c2nc(F)c3c(c2F)S(=O)(=O)CCN3Cc2cccnc2)CC1`, the IC50 was > 50 µM (inactive).
The result for `CC1=C(c2ccc(F)cc2)S(=O)(=O)NC1=NCC(=O)Nc1ccc(F)cc1` reads > 50 µM (inactive); that for `O=C(O)C1CCN(Cc2c(-c3ccco3)nc3ccc(Cl)cn23)CC1`, > 50 µM (inactive); that for `Cc1c(Cl)cccc1NC(=O)Cn1c(=O)c2ccccc2n2nncc12`, > 50 µM (inactive).
With `O=C(Cn1c(=O)n(Cc2ccc(F)cc2)c(=O)c2sccc21)Nc1cccc(Cl)c1`, the concentration for half-maximal inhibition (IC50) is 23.1 µM.
The result for `C=C(NC(=O)C(=C)NC(=O)c1csc(C2=N[C@@H]3c4csc(n4)[C@H]4NC(=O)c5csc(n5)[C@H]([C@](C)(O)[C@@H](C)O)NC(=O)C5CSC(=N5)/C(=C/C)NC(=O)C([C@@H](C)O)NC(=O)c5csc(n5)[C@]3(CC2)NC(=O)[C@H](C)NC(=O)C(=C)NC(=O)[C@H](C)NC(=O)C([C@@H](C)CC)NC2C=Cc3c(C(C)O)cc(nc3[C@H]2O)C(=O)OC4C)n1)C(N)=O` (stereo partly drawn) reads > 50 µM (inactive).
On to `CCCC(=O)c1c[nH]c(C(=O)NCc2ccc(F)cc2)c1`, for which the IC50 is 32.9 µM.
The result for `COc1ccc(NC(=O)c2cc(-c3cccnc3)n[nH]2)cc1Cl` reads 17.8 µM; that for `CCC(=O)N1c2ccccc2NC2=C(C(=O)CC(c3ccccc3OCc3ccccc3)C2)C1c1ccccc1` (stereo not drawn), 12.2 µM; that for `O=C(Nc1ccc(-c2cn3ccccc3n2)cc1)C1C=C2C=C(Br)C=CC2OC1=O` (stereo not drawn), > 50 µM (inactive).
In the case of `COc1cccc(CNC(=O)c2ccc3c(c2)NC(=O)C2CCCN32)c1OC` (stereo not drawn), the IC50 is > 50 µM (inactive).
On to `CC(=O)c1ccc(Cc2ncc(C(F)(F)F)cc2Cl)s1`, for which the IC50 was > 50 µM (inactive).
Take `COc1cc(C)cc2c1C(=O)c1c(cc(O)c(Cl)c1O)C2=O`: the IC50 was 2.08 µM.

The values are drawn from PubChem BioAssay AID1645868 (Buhrlage Lab, Dana-Farber Cancer Institute and Novartis …, 2021).
